{
  "source": "ChEMBL document CHEMBL5625249",
  "about": "“Optimization and antifungal activity of quinoline derivatives linked to chalcone moiety combined with FLC against Candida albicans” (Eur J Med Chem, 2023)",
  "key": {"Candida albicans [1]": {"tested_on": "Candida albicans", "assay": "Synergistic antifungal activity against FLC-resistant Candida albicans ATCC 14053 assessed as fractional inhibitory concentration index measured after 24 hrs by microdilution method", "format": "functional"}, "Candida albicans [2]": {"tested_on": "Candida albicans", "assay": "Synergistic antifungal activity against FLC-resistant Candida albicans ATCC 14053 cultured in SD +10% FBS liquid medium assessed as inhibition of hyphal formation at 1 ug/ml measured after 4 to 8 hrs in presence of fluconazole by inverted microscopy", "format": "functional, organism-based", "conditions": "dose 1.0 µg/ml, time 4-8 hrs"}, "Candida albicans [3]": {"tested_on": "Candida albicans", "assay": "In vivo antifungal activity against FLC-resistant Candida albicans ATCC 14053 infected in Balb/c mouse assessed as increase in organ coefficients of spleen at 7.5 to 15 mg/kg, ig measured after 6 days in presence of fluconazole", "format": "functional, organism-based", "conditions": "dose 7.5-15 mg/kg, time 6.0 day"}, "Candida albicans [4]": {"tested_on": "Candida albicans", "assay": "In vivo antifungal activity against FLC-resistant Candida albicans ATCC 14053 infected in Balb/c mouse assessed as reduction in kidney fungal load at 7.5 to 15 mg/kg, ig measured after 6 days in presence of fluconazole", "format": "functional, organism-based", "conditions": "dose 7.5-15 mg/kg, time 6.0 day"}, "Candida albicans [5]": {"tested_on": "Candida albicans", "assay": "Synergistic antifungal activity against FLC-resistant Candida albicans ATCC 14053 assessed as inhibition of hyphal formation by measuring down regulation of RAS1 gene expression at 1 ug/ml measured after 16 to 18 hrs in presence of fluconazole by qRT-PCR analysis", "format": "functional, organism-based", "conditions": "dose 1.0 µg/ml, time 16-18 hrs"}, "Candida albicans [6]": {"tested_on": "Candida albicans", "assay": "Synergistic antifungal activity against FLC-resistant Candida albicans ATCC 14053 measured over 48 hrs in presence of fluconazole by time-killing assay", "format": "functional, organism-based"}, "Candida albicans [7]": {"tested_on": "Candida albicans", "assay": "Synergistic antifungal activity against FLC-resistant Candida albicans ATCC 14053 assessed as inhibition of hyphal formation by measuring down regulation of CYR1 gene expression at 1 ug/ml measured after 16 to 18 hrs in presence of fluconazole by qRT-PCR analysis", "format": "functional, organism-based", "conditions": "dose 1.0 µg/ml, time 16-18 hrs"}, "Candida albicans [8]": {"tested_on": "Candida albicans", "assay": "Antifungal activity against clinical FLC-resistant Candida albicans 550 measured after 24 hrs by microdilution method", "format": "functional"}, "Candida albicans [9]": {"tested_on": "Candida albicans", "assay": "In vivo antifungal activity against FLC-resistant Candida albicans ATCC 14053 infected in Balb/c mouse assessed as removal of colonized fungi at 15 mg/kg, ig measured after 6 days by H and E staining based histopathological analysis", "format": "functional, organism-based", "conditions": "time 6.0 day"}, "Candida albicans [10]": {"tested_on": "Candida albicans", "assay": "In vivo antifungal activity against FLC-resistant Candida albicans ATCC 14053 infected in Balb/c mouse assessed as reduction in severity of lesions in kidney at 15 mg/kg, ig measured after 6 days by H and E staining based histopathological analysis", "format": "functional, organism-based", "conditions": "time 6.0 day"}, "Candida albicans [11]": {"tested_on": "Candida albicans", "assay": "In vivo antifungal activity against FLC-resistant Candida albicans ATCC 14053 infected in Balb/c mouse assessed as reduction in liver fungal load at 15 mg/kg, ig measured after 6 days", "format": "functional, organism-based", "conditions": "time 6.0 day"}, "Candida albicans [12]": {"tested_on": "Candida albicans", "assay": "Antifungal activity against FLC-resistant Candida albicans ATCC 10231 measured after 24 hrs by microdilution method", "format": "functional"}, "Candida albicans [13]": {"tested_on": "Candida albicans", "assay": "Synergistic antifungal activity against clinical FLC-resistant Candida albicans 4508 measured after 24 hrs by microdilution method", "format": "functional"}, "Candida albicans [14]": {"tested_on": "Candida albicans", "assay": "In vivo antifungal activity against FLC-resistant Candida albicans ATCC 14053 infected in Balb/c mouse assessed as reduction in renal injury at 15 mg/kg, ig measured after 6 days by H and E staining based histopathological analysis", "format": "functional, organism-based", "conditions": "time 6.0 day"}, "Candida albicans [15]": {"tested_on": "Candida albicans", "assay": "In vivo antifungal activity against FLC-resistant Candida albicans ATCC 14053 infected in Balb/c mouse assessed as restoration of kidney morphology at 7.5 to 15 mg/kg, ig measured after 6 days in presence of fluconazole by H and E staining based histopathological analysis", "format": "functional, organism-based", "conditions": "dose 7.5-15 mg/kg, time 6.0 day"}, "Candida albicans [16]": {"tested_on": "Candida albicans", "assay": "Antifungal activity against clinical FLC-resistant Candida albicans 3511 measured after 24 hrs by microdilution method", "format": "functional"}, "Candida albicans [17]": {"tested_on": "Candida albicans", "assay": "In vivo antifungal activity against FLC-resistant Candida albicans ATCC 14053 infected in Balb/c mouse assessed as restoration of normal glomeruli morphology at 15 mg/kg, ig measured after 6 days by H and E staining based histopathological analysis", "format": "functional, organism-based", "conditions": "time 6.0 day"}, "Candida albicans [18]": {"tested_on": "Candida albicans", "assay": "Synergistic antifungal activity against clinical FLC-resistant Candida albicans 381 measured after 24 hrs by microdilution method", "format": "functional"}, "Candida albicans [19]": {"tested_on": "Candida albicans", "assay": "Synergistic antifungal activity against FLC-resistant Candida albicans ATCC 14053 cultured in SD +10% FBS liquid medium assessed as inhibition of hyphal formation at 1 ug/ml measured after 2 hrs in presence of fluconazole by inverted microscopy", "format": "functional, organism-based", "conditions": "dose 1.0 µg/ml"}, "Candida albicans [20]": {"tested_on": "Candida albicans", "assay": "Antifungal activity against Clinical FLC-resistant Candida albicans 23 measured after 24 hrs by microdilution method", "format": "functional"}, "Candida albicans [21]": {"tested_on": "Candida albicans", "assay": "Synergistic antifungal activity against clinical FLC-resistant Candida albicans 4574 measured after 24 hrs by microdilution method", "format": "functional"}, "Candida albicans [22]": {"tested_on": "Candida albicans", "assay": "Synergistic antifungal activity against clinical FLC-resistant Candida albicans 3816 assessed as fractional inhibitory concentration index measured after 24 hrs by microdilution method", "format": "functional"}, "Candida albicans [23]": {"tested_on": "Candida albicans", "assay": "Antifungal activity against clinical FLC-resistant Candida albicans 800 measured after 24 hrs by microdilution method", "format": "functional"}, "Candida albicans [24]": {"tested_on": "Candida albicans", "assay": "Antifungal activity against FLC-resistant Candida albicans ATCC 14053 measured after 24 hrs by microdilution method", "format": "functional"}, "Candida albicans [25]": {"tested_on": "Candida albicans", "assay": "Synergistic antifungal activity against FLC-resistant Candida albicans ATCC 14053 assessed as inhibition of hyphal formation by measuring down regulation of ECE1 gene expression at 1 ug/ml measured after 16 to 18 hrs in presence of fluconazole by qRT-PCR analysis", "format": "functional, organism-based", "conditions": "dose 1.0 µg/ml, time 16-18 hrs"}, "Candida albicans [26]": {"tested_on": "Candida albicans", "assay": "Synergistic antifungal activity against clinical FLC-resistant Candida albicans 799 measured after 24 hrs by microdilution method", "format": "functional"}, "Candida albicans [27]": {"tested_on": "Candida albicans", "assay": "Induction of reactive oxygen species production in FLC-resistant Candida albicans ATCC 14053 at 1 ug/mL measured after 16 to 18 hrs in presence of fluconazole by DCFH-DA staining based fluorescence assay", "format": "functional, organism-based", "conditions": "dose 1.0 µg/ml, time 16-18 hrs"}, "[28]": {"assay": "Cytotoxicity against human 16-HBE cells assessed as cell survival at 90 ug/ml measured after 24 hrs by MTS assay relative to control", "format": "toxicity, cell-based", "conditions": "16-HBE cells (16HBE14o-), at 90 µg/mL, read-out: Survival"}, "Candida albicans [29]": {"tested_on": "Candida albicans", "assay": "Synergistic antifungal activity against Clinical FLC-resistant Candida albicans 23 assessed as fractional inhibitory concentration index measured after 24 hrs in presence of fluconazole by microdilution method", "format": "functional"}, "Candida albicans [30]": {"tested_on": "Candida albicans", "assay": "Synergistic antifungal activity against clinical FLC-resistant Candida albicans 4508 assessed as fractional inhibitory concentration index measured after 24 hrs by microdilution method", "format": "functional"}, "Candida albicans [31]": {"tested_on": "Candida albicans", "assay": "In vivo antifungal activity against FLC-resistant Candida albicans ATCC 14053 infected in Balb/c mouse assessed as restoration of normal lung morphology at 15 mg/kg, ig measured after 6 days by H and E staining based histopathological analysis", "format": "functional, organism-based", "conditions": "time 6.0 day"}, "Candida albicans [32]": {"tested_on": "Candida albicans", "assay": "Synergistic antifungal activity against clinical FLC-resistant Candida albicans 187 measured after 24 hrs in presence of fluconazole by microdilution method", "format": "functional"}, "Candida albicans [33]": {"tested_on": "Candida albicans", "assay": "In vivo antifungal activity against FLC-resistant Candida albicans ATCC 14053 infected in Balb/c mouse assessed as survival rate at 15 mg/kg, ig measured daily for 6 days (Rvb < 20%)", "format": "functional", "conditions": "ATCC 14053, po, 144 h, time 6 day"}, "Candida albicans [34]": {"tested_on": "Candida albicans", "assay": "Synergistic antifungal activity against clinical FLC-resistant Candida albicans 808 assessed as fractional inhibitory concentration index measured after 24 hrs by microdilution method", "format": "functional"}, "Candida albicans [35]": {"tested_on": "Candida albicans", "assay": "Synergistic antifungal activity against clinical FLC-resistant Candida albicans 800 measured after 24 hrs by microdilution method", "format": "functional"}},
  "note": "Active and inactive are the calls of the source. The rule behind the calls is not given here.",
  "data": [
    {"molecule": "CN1CCN(c2nc3ccccc3cc2/C=C/C(=O)c2ccc(N3CCN(Cc4ccc(C(F)(F)F)cc4)CC3)cc2)CC1", "values": [
      {"measurement": "fractional inhibitory concentration index (FICI)", "setting": "Candida albicans [1]", "result": 0.02},
      {"measurement": "inhibition", "setting": "Candida albicans [2]", "result": "Active"},
      {"measurement": "Activity", "setting": "Candida albicans [3]", "result": "Active"},
      {"measurement": "Activity", "setting": "Candida albicans [4]", "result": "Active"},
      {"measurement": "inhibition", "setting": "Candida albicans [5]", "result": "Active"},
      {"measurement": "Activity", "setting": "Candida albicans [6]", "result": "Dose-Dependent Effect"},
      {"measurement": "inhibition", "setting": "Candida albicans [7]", "result": "Active"},
      {"measurement": "MIC80", "setting": "Candida albicans [8]", "result": "> 40", "unit": "µg/mL"},
      {"measurement": "Activity", "setting": "Candida albicans [9]", "result": "inactive"},
      {"measurement": "Activity", "setting": "Candida albicans [10]", "result": "inactive"},
      {"measurement": "Activity", "setting": "Candida albicans [11]", "result": "inactive"},
      {"measurement": "MIC80", "setting": "Candida albicans [12]", "result": "> 40", "unit": "µg/mL"},
      {"measurement": "MIC80", "setting": "Candida albicans [13]", "result": 1.22, "unit": "µg/mL"},
      {"measurement": "Activity", "setting": "Candida albicans [14]", "result": "inactive"},
      {"measurement": "Activity", "setting": "Candida albicans [15]", "result": "Active"},
      {"measurement": "MIC80", "setting": "Candida albicans [16]", "result": "> 40", "unit": "µg/mL"},
      {"measurement": "Activity", "setting": "Candida albicans [17]", "result": "inactive"},
      {"measurement": "MIC80", "setting": "Candida albicans [18]", "result": 1.35, "unit": "µg/mL"},
      {"measurement": "inhibition", "setting": "Candida albicans [19]", "result": "inactive"},
      {"measurement": "MIC80", "setting": "Candida albicans [20]", "result": "> 40", "unit": "µg/mL"},
      {"measurement": "MIC80", "setting": "Candida albicans [21]", "result": 0.91, "unit": "µg/mL"},
      {"measurement": "fractional inhibitory concentration index (FICI)", "setting": "Candida albicans [22]", "result": 0.03},
      {"measurement": "MIC80", "setting": "Candida albicans [23]", "result": "> 40", "unit": "µg/mL"},
      {"measurement": "MIC80", "setting": "Candida albicans [24]", "result": "> 40", "unit": "µg/mL"},
      {"measurement": "inhibition", "setting": "Candida albicans [25]", "result": "Active"},
      {"measurement": "MIC80", "setting": "Candida albicans [26]", "result": 1.12, "unit": "µg/mL"},
      {"measurement": "Activity", "setting": "Candida albicans [27]", "result": "Active"},
      {"measurement": "viability at 24 h, 90 ug/ml", "setting": "[28]", "result": 76.5, "unit": "%"},
      {"measurement": "fractional inhibitory concentration index (FICI)", "setting": "Candida albicans [29]", "result": 0.03},
      {"measurement": "fractional inhibitory concentration index (FICI)", "setting": "Candida albicans [30]", "result": 0.03},
      {"measurement": "Activity", "setting": "Candida albicans [31]", "result": "inactive"},
      {"measurement": "MIC80", "setting": "Candida albicans [32]", "result": 0.54, "unit": "µg/mL"},
      {"measurement": "survival at 15 mg/kg", "setting": "Candida albicans [33]", "result": 30, "unit": "%"},
      {"measurement": "fractional inhibitory concentration index (FICI)", "setting": "Candida albicans [34]", "result": 0.01},
      {"measurement": "MIC80", "setting": "Candida albicans [35]", "result": 1.28, "unit": "µg/mL"}
    ]}
  ]
}
